Laboratory results published in the NIST ThermoML archive (doi:10.1021/je101151f).
± gives the expanded uncertainty stated by the source.

Conditions: Liquid; Manometric method
Cc1ccc(C(C)C)cc1 [1-(1-methylethyl)-4-methylbenzene] gave a Normal boiling temperature of 176.24 ± 0.31 °C. With C=C(C)[C@@H]1CC=C(C)CC1 [(S)-1-methyl-4-(1-methylethenyl)cyclohexene] the Normal boiling temperature was 177.19 ± 0.36 °C. In the case of C=C1CCC2CC1C2(C)C (stereo not drawn) [β-pinene], the Normal boiling temperature is reported as 165.80 ± 0.31 °C.
